{"source": "ChEMBL document CHEMBL1921687", "about": "“(2-Benzyl-2,3,4,5-tetrahydro-1H-pyrido[4,3-b]indol-8-yl)-acetic acid: an aldose reductase inhibitor and antioxidant of zwitterionic nature” (Bioorg Med Chem, 2011)", "key": {"Erythrocyte [1]": {"system": "Erythrocyte", "experiment": "Antioxidant activity in Wistar rat erythrocytes assessed as prolongation of initial inhibition period-lag phase of t-BuOOH-induced hemolysis at 100 uM preincubated for 30 mins before induction measured up to 5 hrs by spectrophotometry", "type": "functional, cell-based"}, "Erythrocyte [2]": {"system": "Erythrocyte", "experiment": "Antioxidant activity in Wistar rat erythrocytes assessed as prolongation of initial inhibition period-lag phase of t-BuOOH-induced hemolysis at 100 uM treated 30 mins after induction measured up to 5 hrs by spectrophotometry", "type": "functional, cell-based"}, "Rattus norvegicus [3]": {"system": "Rattus norvegicus", "experiment": "Inhibition of sorbitol accumulation in streptozotocin-induced diabetic rat erythrocytes at 25 mg/kg intra-gastrically bid for 4 days followed by single dose on 5th day measured after 3 hrs final dose by resazurin reduction assay", "type": "functional, organism-based", "design": "dose 25 mg/kg"}, "[4]": {"biological_target": "Aldo-keto reductase family 1 member B1 (Homo sapiens, UniProt P15121)", "experiment": "Inhibition of aldose reductase"}, "Erythrocyte [5]": {"system": "Erythrocyte", "experiment": "Antioxidant activity in Wistar rat erythrocytes assessed as prolongation of initial inhibition period-lag phase of AAPH-induced hemolysis at 100 uM preincubated for 30 mins before induction measured up to 5 hrs by spectrophotometry", "type": "functional, cell-based"}, "Erythrocyte [6]": {"system": "Erythrocyte", "experiment": "Antioxidant activity in Wistar rat erythrocytes assessed as prolongation of initial inhibition period-lag phase of t-BuOOH-induced hemolysis at 2.5 uM preincubated for 30 mins before induction measured up to 5 hrs by spectrophotometry", "type": "functional, cell-based"}, "Rattus norvegicus [7]": {"system": "Rattus norvegicus", "experiment": "Antidiabetic activity in streptozotocin-induced diabetic rat assessed as reduction in blood glucose level at 25 mg/kg intra-gastrically administered bid for 4 days followed by single dose on 5th day measured after 3 hrs final dose", "type": "functional, organism-based", "design": "dose 25 mg/kg"}, "Erythrocyte [8]": {"system": "Erythrocyte", "experiment": "Antioxidant activity in Wistar rat erythrocytes assessed as prolongation of initial inhibition period-lag phase of t-BuOOH-induced hemolysis at 10 mM preincubated for 30 mins before induction measured up to 5 hrs by spectrophotometry", "type": "functional, cell-based"}}, "note": "Calls of active or inactive are those of the source. The rule behind the calls is not given here.", "data": [{"smiles": "COc1ccc2[nH]cc(CCNC(C)=O)c2c1", "values": [{"measurement": "Activity", "setting": "Erythrocyte [1]", "value": "inactive"}]}, {"smiles": "O=C(O)Cc1ccc2[nH]c3c(c2c1)CN(Cc1ccccc1)CC3", "values": [{"measurement": "Activity", "setting": "Erythrocyte [2]", "value": "inactive"}, {"measurement": "inhibition", "setting": "Rattus norvegicus [3]", "value": "Active"}, {"measurement": "IC50", "setting": "[4]", "value": 18.2, "unit": "µM"}, {"measurement": "Activity", "setting": "Erythrocyte [5]", "value": "Active"}, {"measurement": "Activity", "setting": "Erythrocyte [6]", "value": "Active"}, {"measurement": "Activity", "setting": "Rattus norvegicus [7]", "value": "inactive"}]}, {"smiles": "Cc1c(C)c2c(c(C)c1O)CCC(C)(C(=O)O)O2", "note": "(centres undefined)", "values": [{"measurement": "Activity", "setting": "Erythrocyte [5]", "value": "Active"}]}, {"smiles": "NCCC(=O)N[C@@H](Cc1c[nH]cn1)C(=O)O", "values": [{"measurement": "Activity", "setting": "Erythrocyte [8]", "value": "Active"}]}]}
